The values below come from ChEMBL document CHEMBL5303304, “EUbOPEN Chemogenomics Library - IncuCyte” (2023).

What all share (type): toxicity, cell-based
Data set [1] deals with HEK-293T. Nature of the data set: Incucyte cell viability with HEK293T. The settings on record: human, 10 µM, compound concentration 10 uM.
The test system of data set [2] is Fibroblast. Nature of the data set: Incucyte cell viability with human fibroblast. To be noted: 10 µM, compound concentration 10 uM.
Data set [3] deals with U2OS. The data set can be described thus: Incucyte cell viability with U2OS. To be noted: human, 10 µM, compound concentration 10 uM.
Further: unitless GR value; below 1 slowed growth and below 0 cell loss.

Consider `CN(C)[C@H]1CCN(c2cc(C(F)(F)F)c(C#N)c(Nc3cccc(CCC(=O)O)c3)n2)C1.O=C(O)C(F)(F)F`, for which the “Growth Rate” value in data set [1] (0 h, replicate number 2) is 0.79; in data set [1] (6 h, replicate number 1), 0.73; in data set [1] (12 h, replicate number 1), 0.95; in data set [1] (18 h, replicate number 1), 0.94; in data set [2] (6 h, replicate number 1), 0.81; in data set [2] (6 h, replicate number 2), -0.53. The “Growth Rate” value in data set [2] (12 h, replicate number 2) is listed as 0.75; in data set [2] (18 h, replicate number 1), 0.99; in data set [2] (18 h, replicate number 2) it was 0.93; in data set [2] (24 h, replicate number 2), 0.72; in data set [3] (0 h, replicate number 1) it was 0.61; in data set [3] (0 h, replicate number 2), 0.54. The “Growth Rate” value in data set [3] (6 h, replicate number 1) was determined as 0.63; in data set [3] (6 h, replicate number 2) it was 0.38; in data set [3] (12 h, replicate number 2), 0.78; in data set [3] (18 h, replicate number 2), 0.89; in data set [3] (24 h, replicate number 2), 0.88.
For `NC1(c2ccc(-c3nc4c(O)ccnn4c3-c3ccccc3)cc2)CCC1`, the “Growth Rate” value in data set [1] (0 h, replicate number 1) was -0.07; in data set [1] (0 h, replicate number 2), -0.33; in data set [1] (24 h, replicate number 1), 0.95; in data set [2] (0 h, replicate number 1), -1; in data set [2] (0 h, replicate number 2), -0.33; in data set [2] (6 h, replicate number 2), 0.35. The “Growth Rate” value in data set [2] (12 h, replicate number 2) is on record as 0.9; in data set [2] (18 h, replicate number 1) it was 0.95; in data set [2] (18 h, replicate number 2), 0.83; in data set [2] (24 h, replicate number 2), 0.93; in data set [3] (0 h, replicate number 2) it was -0.99; in data set [3] (6 h, replicate number 1) it was 0.34. Moreover, the “Growth Rate” value in data set [3] (12 h, replicate number 1) came out at 0.63; in data set [3] (12 h, replicate number 2), 0.83; in data set [3] (18 h, replicate number 1), 0.66; in data set [3] (24 h, replicate number 1), 0.89; in data set [3] (24 h, replicate number 2) it was 0.93.
In the case of `CC(C)Nc1ncnc2cc(OCc3cccc([S@@](C)(=N)=O)c3)c(Br)cc12`, the “Growth Rate” value came to 0.65 in data set [1] (6 h, replicate number 1); 0.3 in data set [1] (6 h, replicate number 2); 0.67 in data set [1] (12 h, replicate number 1); 0.73 in data set [1] (12 h, replicate number 2); 0.82 in data set [1] (18 h, replicate number 1); 0.81 in data set [1] (18 h, replicate number 2). In addition, the “Growth Rate” value in data set [1] (24 h, replicate number 1) is reported as 0.82; in data set [1] (24 h, replicate number 2), 0.87; in data set [2] (0 h, replicate number 1), -0.74; in data set [3] (24 h, replicate number 1), 0.93.
Regarding `CC(=O)Nc1ncc(CN2CCC[C@H](Cc3cc(C)nc(C)c3)C2)s1` [JNJ-65355394], the “Growth Rate” value in data set [1] (0 h, replicate number 2) was -0.2; in data set [1] (6 h, replicate number 1), 0.82; in data set [1] (12 h, replicate number 1), 0.83; in data set [1] (24 h, replicate number 1) it was 0.91; in data set [2] (0 h, replicate number 1), -1; in data set [2] (6 h, replicate number 2), 0.74. Moreover, the “Growth Rate” value in data set [2] (12 h, replicate number 1) is on record as 0.9; in data set [2] (12 h, replicate number 2) it was 0.75; in data set [2] (18 h, replicate number 2), 0.94; in data set [3] (0 h, replicate number 1), -1; in data set [3] (6 h, replicate number 1) it was -0.86; in data set [3] (12 h, replicate number 2) it was 0.62. Further, the “Growth Rate” value in data set [3] (18 h, replicate number 1) is listed as 0.96; in data set [3] (18 h, replicate number 2), 0.92; in data set [3] (24 h, replicate number 2), 0.78.
With `COc1ccc(CSc2nnc(-c3ccc4ncsc4c3)o2)cc1C(F)(F)F`, the “Growth Rate” value in data set [1] (6 h, replicate number 2) was 0.47; in data set [1] (12 h, replicate number 2) it was 0.75; in data set [1] (18 h, replicate number 2), 0.76; in data set [1] (24 h, replicate number 1) it was 0.95; in data set [1] (24 h, replicate number 2), 0.76; in data set [2] (0 h, replicate number 1), -1. Besides, the “Growth Rate” value in data set [2] (6 h, replicate number 1) is reported as 0.92; in data set [2] (6 h, replicate number 2), 0.49; in data set [2] (12 h, replicate number 1), 0.88; in data set [2] (12 h, replicate number 2), 0.64; in data set [2] (18 h, replicate number 1) it was 0.68; in data set [2] (18 h, replicate number 2), 0.71. Besides, the “Growth Rate” value is reported as 0.64 in data set [2] (24 h, replicate number 1); 0.84 in data set [2] (24 h, replicate number 2); -0.97 in data set [3] (0 h, replicate number 1); 0.81 in data set [3] (0 h, replicate number 2); -0.59 in data set [3] (6 h, replicate number 1); 0.78 in data set [3] (6 h, replicate number 2). The “Growth Rate” value in data set [3] (12 h, replicate number 2) is given as 0.87; in data set [3] (18 h, replicate number 2) it was -0.67; in data set [3] (24 h, replicate number 2), 0.95.
